Assay results: patent US20040137023A1, “5-Cholesten-3beta, 25-diol-7-one, esters and ethers thereof, particularly for the treatment of dry skin and scalp” (L'OREAL, priority 2002, published 2004)

Test system: immortalized human sebocytes derived from the SZ95 line
Test: Lipogenesis in immortalized human sebocytes in culture (Nile red fluorescence, neutral lipids)
Format: cell-based
Conditions: for LIPID VARIATION (relative to the control): treatment for 2 days, 0.1% DMSO, Nile red 485-540 nm
Experimental: 5-Cholesten-3β,25-diol-7-one was tested, in comparison with 7-oxocholesterol and 25-hydroxy-cholesterol, on a model of immortalized human sebocytes in culture, derived from the SZ95 line described in Zouboulis, C. C., Seltmann, H., Neitzel, H. and Orfanos, C. E., Establishment and Characterization of an Immortalized Human Sebaceous Gland Cell Line, J. Invest. Dermatol., 113, 1011-1020 (1999).
The test consisted in measuring the amount of lipids produced by the sebocytes of the line (at confluence), in the presence or absence of active agents diluted in DMSO, such that the final amount of DMSO in the culture medium is 0.1%. After treatment for 2 days, the adherent cells are treated with Nile red (1 μg/ml). The lipid content is then quantified by measuring the fluorescence of the dye (excitation/emission pair: 485-540 nm for the neutral lipids).
The tests are performed in sixplicate and the experiment is repeated four times.
In parallel, proliferation tests (MUH) and cell viability tests (LDH) make it possible to check that the effects obtained are not associated with an appreciable change in these biological parameters.

Structure (SMILES)	LIPID VARIATION (relative to the control) (test compound 10^−4 M)	LIPID VARIATION (relative to the control) (test compound 10^−5 M)	increase in the lipid content of the sebum (10^−5 M, same test)
C[C@H](CCCC(C)(C)O)C1CCC2C3C(=O)C=C4C[C@@H](O)CC[C@]4(C)C3CC[C@@]21C (stereo partly drawn) [5-Cholesten-3β,25-diol-7-one]	+90%	+85%	
C[C@H](CCCC(C)(C)O)[C@H]1CC[C@H]2[C@@H]3CC=C4C[C@@H](O)CC[C@]4(C)[C@H]3CC[C@]12C [25-OH cholesterol, 25-hydroxy-cholesterol]	0%		
C[C@]12CC[C@H](O)CC1=CC[C@@H]1[C@@H]2CC[C@]2(C)C(=O)CC[C@@H]12 [DHEA]			13%
CC(C)CCC[C@@H](C)[C@H]1CC[C@H]2[C@@H]3C(=O)C=C4C[C@@H](O)CC[C@]4(C)[C@H]3CC[C@]12C [7-Oxocholesterol, 7-oxocholesterol]	+20%		
